# In ChEMBL document CHEMBL1201862, “PubChem BioAssay data set” (2004):
# Calls of active or inactive are those of the source.
# What was measured:
# [1] = molecular target: Nucleotide-binding oligomerization domain-containing protein 2 (Homo sapiens, UniProt Q9HC29); experiment: inhibition of NOD2-driven NF-kB reporter – cell-based, luminescence, uHTS, HEK293 (AID 1566); type: functional
# Tumor necrosis factor = Tumor necrosis factor (Homo sapiens, UniProt P01375); experiment: analog potency on TNFa NF-kB signaling – cell-based, revised, SAR follow-up (AID 2337); type: functional
# [2] = molecular target: T1, Nucleotide-binding oligomerization domain-containing protein 1 (Homo sapiens, UniProt Q9Y239); experiment: blockers of NOD1 pathway activity – revised, SAR follow-up (AID 2333); type: functional
# T1 sequence (Q9Y239 whole entry): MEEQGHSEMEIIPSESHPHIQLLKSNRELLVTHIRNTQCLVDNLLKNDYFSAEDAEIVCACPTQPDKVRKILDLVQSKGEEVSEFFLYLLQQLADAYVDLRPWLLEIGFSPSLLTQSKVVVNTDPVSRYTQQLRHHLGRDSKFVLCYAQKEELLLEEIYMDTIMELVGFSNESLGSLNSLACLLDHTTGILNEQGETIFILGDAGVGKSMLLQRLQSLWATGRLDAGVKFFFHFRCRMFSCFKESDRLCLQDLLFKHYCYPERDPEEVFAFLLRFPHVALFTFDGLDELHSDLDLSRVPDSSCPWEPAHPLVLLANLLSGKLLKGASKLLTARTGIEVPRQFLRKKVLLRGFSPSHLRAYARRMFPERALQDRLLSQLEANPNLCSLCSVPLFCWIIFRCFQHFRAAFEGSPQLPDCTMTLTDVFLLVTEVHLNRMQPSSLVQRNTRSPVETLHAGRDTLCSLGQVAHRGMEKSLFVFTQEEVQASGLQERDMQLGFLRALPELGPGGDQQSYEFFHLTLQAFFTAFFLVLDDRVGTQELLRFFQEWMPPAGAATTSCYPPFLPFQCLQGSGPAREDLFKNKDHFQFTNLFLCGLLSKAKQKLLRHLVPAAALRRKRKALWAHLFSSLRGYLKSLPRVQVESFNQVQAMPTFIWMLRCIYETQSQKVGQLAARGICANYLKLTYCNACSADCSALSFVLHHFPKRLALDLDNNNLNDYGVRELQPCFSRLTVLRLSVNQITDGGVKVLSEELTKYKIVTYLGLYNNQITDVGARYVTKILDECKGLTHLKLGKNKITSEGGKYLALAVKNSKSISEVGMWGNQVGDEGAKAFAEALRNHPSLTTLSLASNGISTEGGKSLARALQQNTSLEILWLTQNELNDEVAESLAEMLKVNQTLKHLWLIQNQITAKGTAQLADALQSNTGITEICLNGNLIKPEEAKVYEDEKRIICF
# [3] = molecular target: DNA damage-inducible transcript 3 protein (Mus musculus, UniProt P35639); type: functional, Cricetulus griseus
# [4] = viability of PTEN-deleted HCT116 cells – cell-based, HCT116 PTEN knockout, dose response (AID 1047); type: functional;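 note: HCT116 colon tumor cells with PTEN knocked out; cells exposed to compound for 60 hours before readout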
# [5] = viability of HCT116 lacking mutant beta-catenin – cell-based, human colon tumor, dose response (AID 1045); type: functional;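 note: HCT116 colon tumor cells with beta catenin knocked out; cells exposed to compound for 60 hours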
# CHO = CHO cell viability loss, potency – luminescence, cytotoxicity control for TLR9-MyD88 binding inhibitor project, dose response (AID 588339); type: functional, cell-based, hamster; details: Cricetulus griseus;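 note: CHO cells stably coexpressing TLR9 and MyD88 fusions from primary screen; compound exposure lasted 48 hours before viability readout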
# Beta Lactamase = Beta Lactamase (Pseudomonas aeruginosa, UniProt Q932Y6); experiment: BLA reporter interference, concentration series – BLA reporter cells, FRET fluorescence, artefact control for TLR9-MyD88 binding inhibitor project, dose response (AID 588341); type: cell-based;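 note: cell based assay in CHO-K1 cells stably expressing beta-lactamase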
# INS1 = experiment: INS-1E survival protection against cytokine death – cell-based, luminescence, retest, dose response (AID 449756); type: functional; details: Rattus norvegicus;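 note: cell death triggered by IL-1 beta plus TNF-alpha plus IFN-gamma mixture; protective hits raise ATP signal compared with cytokine alone wells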
# [6] = molecular target: G-protein coupled receptor 55 (Homo sapiens, UniProt Q9Y2T6); experiment: inhibition of LPI-stimulated GPR55 beta-arrestin translocation – imaging, U2OS, beta-arrestin-GFP, LPI agonist, primary screen (AID 2013); type: functional;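 note: antagonist potency measured as reduced agonist-driven arrestin aggregation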
# Troponin, cardiac muscle = Troponin, cardiac muscle (Homo sapiens, UniProt P19429+P45379+P63316); experiment: Fluorescence-based biochemical high throughput dose response assay for activators of the calcium sensitivity of cardiac Regulated Thin Filaments (RTF). [Related pubchem assays (depositor defined):AID493008, AID493018, AID504382, AID504383]; type: protein-complex assay
# SUMO-activating enzyme [7] = molecular target: T2, SUMO-activating enzyme (Homo sapiens, UniProt Q9UBT2); experiment: blockers of UBC9-mediated SUMO conjugation – biochemical, AlphaScreen, SUMOylation inhibitor project, confirmation (AID 2018); type: functional
# SUMO-activating enzyme [8] = molecular target: T2, SUMO-activating enzyme; experiment: blockers of SAE1/SAE2–UBC9 SUMO transfer – biochemical, HTRF, uHTS, primary screen (AID 2006); type: protein-complex assay
# [9] = molecular target: T3, Tyrosine-protein phosphatase non-receptor type 11 (Homo sapiens, UniProt Q06124); experiment: PTPN11 enzyme inhibitors – biochemical, selectivity assay for STEP inhibitor project, dose response (AID 602367); type: functional; details: read-out: IC50_Mean
# T3 sequence (Q06124 whole entry): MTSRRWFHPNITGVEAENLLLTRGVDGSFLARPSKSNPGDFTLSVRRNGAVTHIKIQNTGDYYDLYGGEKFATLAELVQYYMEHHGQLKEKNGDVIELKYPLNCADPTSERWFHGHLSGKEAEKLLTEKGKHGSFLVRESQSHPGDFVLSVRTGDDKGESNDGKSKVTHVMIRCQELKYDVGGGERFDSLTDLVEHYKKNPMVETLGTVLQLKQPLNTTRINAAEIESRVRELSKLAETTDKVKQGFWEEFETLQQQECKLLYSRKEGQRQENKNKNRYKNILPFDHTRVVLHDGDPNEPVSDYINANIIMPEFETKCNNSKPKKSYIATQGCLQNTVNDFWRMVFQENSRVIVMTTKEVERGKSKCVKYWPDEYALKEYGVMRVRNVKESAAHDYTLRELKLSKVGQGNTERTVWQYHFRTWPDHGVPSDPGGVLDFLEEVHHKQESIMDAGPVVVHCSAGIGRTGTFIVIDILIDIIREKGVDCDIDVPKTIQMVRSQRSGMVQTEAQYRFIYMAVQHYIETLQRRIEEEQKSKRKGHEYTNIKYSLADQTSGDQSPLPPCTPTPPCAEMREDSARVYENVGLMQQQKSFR
# [10] = molecular target: 26S proteasome non-ATPase regulatory subunit 14 (Homo sapiens, UniProt O00487); experiment: inhibition of proteasome subunit RPN11 – biochemical, fluorescence polarization, uHTS hits, confirmation (AID 602368); type: functional
# [11] = molecular target: T4, Tyrosine-protein phosphatase non-receptor type 5 (Homo sapiens, UniProt P54829); experiment: PTPN5 enzyme inhibition – biochemical, fluorescence intensity, uHTS hits, confirmation (AID 602372); type: functional; details: read-out: IC50_Mean
# T4 sequence (P54829 whole entry): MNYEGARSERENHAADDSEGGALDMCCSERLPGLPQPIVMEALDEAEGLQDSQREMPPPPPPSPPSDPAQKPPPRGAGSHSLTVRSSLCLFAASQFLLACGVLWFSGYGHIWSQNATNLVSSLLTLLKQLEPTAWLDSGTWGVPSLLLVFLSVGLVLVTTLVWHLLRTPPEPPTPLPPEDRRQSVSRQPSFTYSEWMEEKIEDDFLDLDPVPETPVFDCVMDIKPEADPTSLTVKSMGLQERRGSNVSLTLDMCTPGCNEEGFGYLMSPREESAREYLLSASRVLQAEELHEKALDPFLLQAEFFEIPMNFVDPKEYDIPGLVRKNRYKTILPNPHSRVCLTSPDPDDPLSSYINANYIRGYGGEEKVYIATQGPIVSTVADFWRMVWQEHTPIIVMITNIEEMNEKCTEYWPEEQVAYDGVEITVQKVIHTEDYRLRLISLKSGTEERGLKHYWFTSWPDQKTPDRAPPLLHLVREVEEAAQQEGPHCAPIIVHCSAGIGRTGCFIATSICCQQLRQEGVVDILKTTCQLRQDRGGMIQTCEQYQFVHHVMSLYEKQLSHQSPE
# [12] = molecular target: 72 kDa type IV collagenase (Homo sapiens, UniProt P08253); experiment: Dose Response validation of uHTS RPN11 inhibitor hits using a MMP-2 Fluorescence assay.; type: functional
# [13] = molecular target: Dual specificity protein phosphatase 3 (Homo sapiens, UniProt P51452); experiment: VHR phosphatase inhibition, dose response, selectivity assay for STEP inhibitor project, biochemical (AID 602374); type: functional; details: read-out: IC50_Mean
# Prothrombin [14] = molecular target: Prothrombin (Bos taurus, UniProt P00735); experiment: thrombin protease inhibitors – biochemical, fluorescence polarization, uHTS hits, dose response (AID 602369); type: functional
# [15] = molecular target: T5, Small ubiquitin-related modifier 1 (Homo sapiens, UniProt P63165); experiment: SUMO1 protein interaction blockers, potency – biochemical, fluorescence polarization, uHTS hits, dose response (AID 624382); type: functional; details: read-out: IC50_Mean
# [16] = molecular target: T5, Small ubiquitin-related modifier 1; experiment: SUMO1 protein-protein binding blockers, potency – biochemical, FRET, dose response (AID 624383); type: functional; details: read-out: IC50_Mean
# [17] = molecular target: T6, Calpain-2 catalytic subunit (Sus scrofa, UniProt P43367); experiment: m-calpain protease blockers, concentration series – biochemical, fluorogenic peptide substrate, dose response (AID 1420); type: functional
# T6 sequence (P43367 whole entry): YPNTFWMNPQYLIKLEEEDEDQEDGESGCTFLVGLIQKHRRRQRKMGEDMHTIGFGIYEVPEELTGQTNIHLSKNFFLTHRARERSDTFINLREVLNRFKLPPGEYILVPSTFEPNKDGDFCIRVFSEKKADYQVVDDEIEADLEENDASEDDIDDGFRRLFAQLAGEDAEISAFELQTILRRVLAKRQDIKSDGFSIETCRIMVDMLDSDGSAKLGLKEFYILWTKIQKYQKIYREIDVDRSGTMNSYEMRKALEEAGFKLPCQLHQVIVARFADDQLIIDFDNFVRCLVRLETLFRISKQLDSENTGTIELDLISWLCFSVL
# Coagulation factor XII = molecular target: T7, Coagulation factor XII (Homo sapiens, UniProt P00748); type: functional;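 note: activated factor XIIa alpha cleaving a fluorogenic AMC peptide substrate; inhibitor potency from loss of enzyme activity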
# T7 sequence (P00748 whole entry): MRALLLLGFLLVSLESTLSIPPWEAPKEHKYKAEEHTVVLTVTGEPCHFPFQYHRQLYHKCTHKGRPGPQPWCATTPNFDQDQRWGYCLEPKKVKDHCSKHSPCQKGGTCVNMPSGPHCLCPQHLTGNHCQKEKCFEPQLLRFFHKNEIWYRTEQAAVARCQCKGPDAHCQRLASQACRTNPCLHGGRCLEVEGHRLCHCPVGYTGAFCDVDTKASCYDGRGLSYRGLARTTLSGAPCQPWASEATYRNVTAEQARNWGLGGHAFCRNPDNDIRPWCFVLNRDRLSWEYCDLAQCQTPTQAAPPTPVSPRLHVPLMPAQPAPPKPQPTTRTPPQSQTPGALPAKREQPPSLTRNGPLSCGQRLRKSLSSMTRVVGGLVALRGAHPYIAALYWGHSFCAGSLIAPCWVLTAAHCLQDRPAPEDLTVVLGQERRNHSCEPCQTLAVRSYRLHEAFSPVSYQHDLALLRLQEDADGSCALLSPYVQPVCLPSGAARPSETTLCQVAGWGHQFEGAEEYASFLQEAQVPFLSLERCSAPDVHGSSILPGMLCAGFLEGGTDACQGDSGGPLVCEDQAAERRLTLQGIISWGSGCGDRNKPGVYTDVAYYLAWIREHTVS
# [18] = Luminescence Cell-Based Dose Response HTS to Identify Activators of Luciferase Translation or Activity in H4 […] Cells. [Related pubchem assays: 1829 (Project Summary), 1814 (Primary HTS)]; type: functional
# H4 = experiment: Luminescence Cell-Based Dose Response HTS to Identify Activators of 5'UTR Stem-Loop Driven Prion Protein mRNA Translation in H4 Neuroglioblastoma Cells. [Related pubchem assays: 1829 (Project Summary), 1814 (Primary HTS)]; type: functional; details: Homo sapiens
# Prothrombin [19] = molecular target: Prothrombin (Homo sapiens, UniProt P00734); experiment: Thrombin 1536 HTS Dose Response Confirmation. [Related pubchem assays: 1046 (Thrombin 1536 HTS; hits were confirmed in this assay)]; type: functional
# [20] = Luminescence Cell-Based Dose Retest to Confirm Inhibitors of Cancer Stem Cells. [Related pubchem assays (depositor defined):AID2717, AID2721]; type: functional, Homo sapiens
structure (smiles),measurement,setting,value
Cc1oc(-c2ccccc2Cl)nc1CSc1nc2c(c(=O)[nH]1)CCCC2,EC50,[1],0.73 µM (active)
same,IC50,Tumor necrosis factor,3.09 µM (active)
same,IC50,[2],5.75 µM (active)
Clc1ccc2[nH]c(-c3ccccc3)cc2c1,Absolute IC50 (CHOP),[3],10 µM
Cc1ccccc1NC(=O)/C=C/c1ccc([N+](=O)[O-])s1,EC50,[4],1.6 µM (active)
same,EC50,[5],1.16 µM (active)
same,Absolute IC50 (CHOP),[3],10 µM
same,IC50,CHO,2.22 µM (active)
same,IC50,Beta Lactamase,13.7 µM (inactive)
same,AC50,INS1,6.17 µM (active)
N=c1c2c(ncn1Cc1ccco1)Oc1cc(O)ccc1C2c1ccccc1 (stereo not drawn),IC50,[6],1.2 µM (active)
same,EC50,"Troponin, cardiac muscle",> 71.4 µM (inactive)
O=Cc1cn(-c2ccccc2)nc1-c1cc2cc(O)ccc2oc1=O,IC50,SUMO-activating enzyme [7],11.4 µM (active)
same,IC50,SUMO-activating enzyme [8],18.1 µM (active)
same,IC50,[9],1.96 µM (active)
same,IC50,[10],19.4 µM (active)
same,IC50,[11],27.5 µM (inactive)
same,IC50,[12],> 100 µM (inactive)
same,IC50,[13],3.02 µM (active)
same,IC50,Prothrombin [14],35.5 µM (active)
same,IC50,[15],> 66.6 µM (inactive)
same,IC50,[16],7.28 µM (active)
O=C1N=C(Nc2ccccc2)S/C1=C/c1cccs1,IC50,[17],> 50 µM (not active)
same,IC50,Coagulation factor XII,> 50 µM (inactive)
O=C(NNC1=NCCCCC1)Nc1cccc(Cl)c1,EC50,[18],0.409 µM (active)
same,EC50,H4,0.242 µM (active)
same,IC50,Prothrombin [19],7.74 µM (active)
same,IC50,Coagulation factor XII,> 50 µM (inactive)
CC(=O)Oc1ccc(NC(=O)Cc2ccccc2)c(C(=O)O)c1,EC50,"Troponin, cardiac muscle",> 71.5 µM (inactive)
C=C(C)[C@@H]1CC[C@]2(C(=O)O)CC[C@]3(C)[C@H](CC[C@@H]4[C@@]5(C)CC[C@H](O)C(C)(C)[C@@H]5CC[C@]43C)[C@@H]12 [BETULINIC ACID],IC50,SUMO-activating enzyme [7],13.2 µM (active)
same,IC50,SUMO-activating enzyme [8],9.24 µM (active)
same,AC50,[20],1.94 µM (active)
same,AC50,[20]; Homo sapiens,3.05 µM (active)
